From patent US20240016822A1, “USE OF NK1 ANTAGONIST PRODRUG COMPOUND IN COMBINATION WITH 5-HT3 RECEPTOR ANTAGONIST” (Shanghai Shengdi Pharmaceutical Co., Ltd., priority 2020, published 2024)
Where two headings read alike, the source gives them in different places.

Key:
[1] = Water solubility at different pH values; format: physicochemical
Procedure: • 1.1 Preparation of reagent • Reagent: NaH2PO4·2H2O • 1.2 Preparation method
The preparation according to 100 mL specification is as follows: • pH=3.0: phosphate buffer: 100 mL of 2 mmol/L NaH2PO4, adjusted to pH 3.0 with 0.1 M H3PO4. • pH=4.0: phosphate buffer: 100 mL of 2 mmol/L NaH2PO4, […] 100 mL of 2 mmol/L Na2HPO4, adjusted to pH 9.0 with 0.1 M NaOH. • 1.3 Test method
A proper amount of a test compound was weighed, and the solution was added in small batches. The mixture was stirred until the test compound was dissolved. The content of the compound in the solution was determined. The data are shown in Table 1. • 2.1 Stability test of compound
1 mg of the sample was weighed and added to a vial. The vial was placed in a vacuum bag, which was vacuumized and placed in a container filled with allochroic silica gel. The container was sealed. Two parts were prepared in parallel. Adequate parts were prepared according to sampling time points, and the two parts for each sampling time point were placed at 4° C. and room temperature, respectively. The solubility of the compound of formula (I) was determined at different pH values.

red blood cells (RBCs) = assay: Hemolytic effect on rabbit red blood cell suspension; format: cell-based; details: 2% rabbit RBC suspension; test sample in PBS (pH 7.4 or pH 5), 0.4-2 mg/mL; concentration up to 2 mg/mL
Procedure: 10 mL of red blood cells (RBCs) were randomly collected from the jugular vein or central auricular artery of a rabbit (EDTA whole blood), placed in a conical flask with glass beads, and shaken for 10 min to remove fibrinogen, resulting in defibrinated blood. 10 volumes of sodium chloride injection were added. The mixture was shaken uniformly and centrifuged at 1500 rpm for 10 min, and the supernatant was removed. […] The obtained red blood cells were prepared into 2% (v/v) suspension with sodium chloride injection for later use.
A test sample (the compound of formula (I)) was dissolved in PBS (pH 7.4 or pH 5), and the solution was filtered and prepared to the concentrations of 0.4 mg/mL, 0.8 mg/mL, 1.2 mg/mL, 1.6 mg/mL, and 2 mg/mL for later use.
A certain amount of the test sample solution was added to the above […] for testing in the supernatant.
The hemolytic effect of the compound provided by the present disclosure was determined by this method.
Rolapitant emulsion (formula: 4.4% polyethylene glycol 15-hydroxystearate, 1.1% medium chain triglyceride, and 0.66% soybean oil) was prepared by reference to the method described in CN102573475, and prepared with PBS to concentrations of 0.18 mg/mL, 0.09 mg/mL, 0.045 mg/mL, 0.023 mg/mL, 0.011 mg/mL, […] for later use.
The hemolytic effect was determined by the method described in Test Example 2.

[2] = Pharmacokinetic test in cynomolgus monkeys; format: in vivo
Procedure: With cynomolgus monkeys as test animals, the plasma concentrations of the compound of formula (I) at different time points after administration by injection were determined by LC/MS/MS. The pharmacokinetic performance of the compound was studied in cynomolgus monkeys and its pharmacokinetic characteristics were evaluated.
A certain amount of the test compound was weighed and prepared into a solution at pH 4.0 with 20 mmol/L sodium dihydrogen phosphate for later use. • 1.1 Administration Intravenous drip, injection time: about 30 min, administration dose: 3.54 mg/kg, administration concentration: […], and administration volume: 5 mL/kg. • 1.2 Operation
Blood was collected from femoral vein before administration and 5 min, 0.25 h, 0.5 h, 1 h, 2 h, 4 h, 6 h, 8 h, 10 h and 24 h after administration, about 0.6 mL for each sample. The blood samples were anticoagulated with sodium heparin and placed on ice immediately after collection. The blood samples were placed in marked centrifuge tubes after collection, and plasma was isolated by centrifugation (centrifugation conditions: 2200 g of centrifugal force, 10 min, 2-8° C.).
The contents of the compound of formula (I) and rolapitant in the plasma samples were determined by LC/MS/MS. • 1.3 Pharmacokinetic parameters

- solubility ([1]; pH 7.4, thermodynamic from solid, pH 7.4, read-out: Saturated solubility): 19.8 mg/mL
- solubility ([1]; pH 7.4, thermodynamic from solid, pH 7.4, read-out: Solubility): 26 mg/mL
- solubility ([1]; phosphate buffer, pH 9, aqueous buffer, thermodynamic from solid, pH 9.0, read-out: Saturated solubility): 21.4 mg/mL
- solubility ([1]; phosphate buffer, pH 9, aqueous buffer, thermodynamic from solid, pH 9.0, read-out: Solubility): 28 mg/mL
- half-life ([2]; cynomolgus monkey, analyte compound of formula (I) in plasma, intravenous drip about 30 min, 3.54 mg/kg compound of formula (I)): 28.2 min
- AUC(0-t) ([2]; cynomolgus monkey, analyte compound of formula (I) in plasma, intravenous drip about 30 min, 3.54 mg/kg compound of formula (I), read-out: AUC0-24 h): 1430 ng·h/mL
- MRT inf ([2]; cynomolgus monkey, analyte compound of formula (I) in plasma, intravenous drip about 30 min, 3.54 mg/kg compound of formula (I), read-out: MRT 0-∞): 15.6 min
Compound: C[C@@H](OC[C@@]1(c2ccccc2)CC[C@]2(CCC(=O)N2)CN1C(=O)OCOP(=O)(O)O)c1cc(C(F)(F)F)cc(C(F)(F)F)c1 [compound of formula (I)]
- Hemolytic effect (red blood cells (RBCs)): no hemolytic effect
- Conversion of prodrug into active metabolite rolapitant ([2]; cynomolgus monkeys, intravenous drip 3.54 mg/kg): quickly converted into the active metabolite rolapitant
